Key:
Test in all cases: relative viability (nuclei count vs DMSO), 5 days (fraction); higher = more cells survive
Crenolanib + Palbociclib = compound: CC1(COc2ccc3c(c2)ncn3-c2ccc3cccc(N4CCC(N)CC4)c3n2)COC1 [Crenolanib] + CC(=O)c1c(C)c2cnc(Nc3ccc(N4CCNCC4)cn3)nc2n(C2CCCC2)c1=O [Palbociclib] (partner 0.5 µM)
Method in brief: (§1)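 A single step with final 0.05% Triton X-100, 1% formaldehyde and 1 ug/ml Hoechst fixed the cells and stained nuclei 5 days after treatment. Lung cancer cell lines in 1536-well plates had been treated by pin tool the day after seeding with one drug alone or a fixed anchor-drug dose plus five library-drug doses (not always all listed) in √10 steps, and nuclei were counted on 4× images. Relative viability is the ratio of nuclei in treated wells to nuclei in vehicle wells, taken as the median of duplicate plates.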

Tivantinib + Pemetrexed = compound: O=C1NC(=O)[C@@H](c2cn3c4c(cccc24)CCC3)[C@@H]1c1c[nH]c2ccccc12 [Tivantinib] + Nc1nc2[nH]cc(CCc3ccc(C(=O)N[C@@H](CCC(=O)O)C(=O)O)cc3)c2c(=O)[nH]1 [Pemetrexed] (partner 0.2 µM)
Method in brief: as §1

Tivantinib + Dasatinib = compound: O=C1NC(=O)[C@@H](c2cn3c4c(cccc24)CCC3)[C@@H]1c1c[nH]c2ccccc12 [Tivantinib] + Cc1nc(Nc2ncc(C(=O)Nc3c(C)cccc3Cl)s2)cc(N2CCN(CCO)CC2)n1 [Dasatinib] (partner 0.075 µM)
Method in brief: as §1

Tivantinib + Foretinib = compound: O=C1NC(=O)[C@@H](c2cn3c4c(cccc24)CCC3)[C@@H]1c1c[nH]c2ccccc12 [Tivantinib] + COc1cc2c(Oc3ccc(NC(=O)C4(C(=O)Nc5ccc(F)cc5)CC4)cc3F)ccnc2cc1OCCCN1CCOCC1 [Foretinib] (partner 0.25 µM)
Method in brief: as §1

Work on UMC-11 yielded a relative viability (Crenolanib + Palbociclib; first compound 0.01 µM) of 0.391, a relative viability (Crenolanib + Palbociclib; first compound 0.03162 µM) of 0.334 and a relative viability (Crenolanib + Palbociclib; first compound 0.1 µM) of 0.349. For the same cell line, the relative viability (Crenolanib + Palbociclib; first compound 0.3162 µM) was 0.286, the relative viability (Crenolanib + Palbociclib; first compound 1 µM) was 0.352 and the relative viability (Tivantinib + Pemetrexed; first compound 0.01 µM) was 0.772. For the same cell line, the relative viability (Tivantinib + Pemetrexed; first compound 0.03162 µM) was 0.759, the relative viability (Tivantinib + Pemetrexed; first compound 0.1 µM) was 0.75 and the relative viability (Tivantinib + Pemetrexed; first compound 0.3162 µM) was 0.803. For the same cell line, the relative viability (Tivantinib + Dasatinib; first compound 0.01 µM) was 0.43, the relative viability (Tivantinib + Dasatinib; first compound 0.03162 µM) was 0.491 and the relative viability (Tivantinib + Dasatinib; first compound 0.1 µM) was 0.421. It also gave a relative viability (Tivantinib + Dasatinib; first compound 0.3162 µM) of 0.614, a relative viability (Tivantinib + Foretinib; first compound 0.01 µM) of 1.04 and a relative viability (Tivantinib + Foretinib; first compound 0.03162 µM) of 0.975. For the same cell line, the relative viability (Tivantinib + Foretinib; first compound 0.1 µM) was 0.944 and the relative viability (Tivantinib + Foretinib; first compound 0.3162 µM) was 1.01.
